{
  "source": "patent US10343985B2",
  "about": "“Cryopyrin inhibitors for preventing and treating inflammation” (VIRGINIA COMMONWEALTH UNIVERSITY, priority 2013, dated 2019)",
  "key": {"NLRP3 inflammasome [1]": {"target": "T1, NLRP3 inflammasome (Mus musculus, UniProt Q8R4B8)", "T1 sequence (Q8R4B8 whole entry)": "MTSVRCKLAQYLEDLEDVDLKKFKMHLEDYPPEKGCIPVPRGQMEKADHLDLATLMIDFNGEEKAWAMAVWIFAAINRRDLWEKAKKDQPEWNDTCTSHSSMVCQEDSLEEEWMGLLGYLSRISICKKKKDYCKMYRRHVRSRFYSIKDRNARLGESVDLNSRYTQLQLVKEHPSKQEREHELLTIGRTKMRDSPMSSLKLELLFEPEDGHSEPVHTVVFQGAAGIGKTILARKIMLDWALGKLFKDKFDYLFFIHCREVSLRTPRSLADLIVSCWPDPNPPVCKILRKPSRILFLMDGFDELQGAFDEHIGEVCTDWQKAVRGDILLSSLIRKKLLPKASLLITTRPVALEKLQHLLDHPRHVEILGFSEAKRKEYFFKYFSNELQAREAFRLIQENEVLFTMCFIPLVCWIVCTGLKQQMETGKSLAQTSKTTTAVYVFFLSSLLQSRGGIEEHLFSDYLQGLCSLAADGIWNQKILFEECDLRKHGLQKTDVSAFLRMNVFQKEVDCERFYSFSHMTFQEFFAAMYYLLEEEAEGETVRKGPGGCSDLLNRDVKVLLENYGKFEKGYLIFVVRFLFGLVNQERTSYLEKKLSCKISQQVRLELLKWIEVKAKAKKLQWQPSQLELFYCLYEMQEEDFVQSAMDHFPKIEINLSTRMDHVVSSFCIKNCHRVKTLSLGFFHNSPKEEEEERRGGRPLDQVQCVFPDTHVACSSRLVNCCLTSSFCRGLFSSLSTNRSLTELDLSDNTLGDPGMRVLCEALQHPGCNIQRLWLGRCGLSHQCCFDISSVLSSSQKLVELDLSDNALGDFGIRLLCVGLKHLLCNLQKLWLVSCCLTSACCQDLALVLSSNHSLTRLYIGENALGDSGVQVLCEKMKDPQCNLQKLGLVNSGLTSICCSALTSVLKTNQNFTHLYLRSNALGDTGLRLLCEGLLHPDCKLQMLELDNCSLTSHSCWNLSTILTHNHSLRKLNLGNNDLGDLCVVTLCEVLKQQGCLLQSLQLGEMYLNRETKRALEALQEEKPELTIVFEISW", "assay": "Caspase-1 enzymatic activity in HL-1 cardiomyocytes", "format": "cell-based, murine", "parameters": "immortalized adult murine cardiomyocytes (HL-1) cells were used; endogenous in cells; host or cells: HL-1 murine cardiomyocytes", "settings": "LPS/ATP, compound 400 μM", "protocol": "In separate experiments, immortalized adult murine cardiomyocytes (HL-1) cells were used. […] Formation of the NLRP3 inflammasome in HL-1 cells was determined and quantified by ASC aggregation (immunohistochemistry), caspase-1 activity (enzymatic activity) and cell death (trypan blue exclusion method), as previously described. […] As readout for the NLRP3 inflammasome activation, caspase-1 enzymatic activity and cell death were evaluated. Briefly, HL-1 cells (2×10^6 cells) were plated in 90-mm dishes and NLRP3 inflammasome formation was induced as described above. After treatments, to measure caspase-1 activity, the cells were washed, harvested, and frozen. The pellet was resuspended using RIPA buffer (Sigma-Aldrich) containing a mixture of protease inhibitors (Sigma-Aldrich) and centrifuged at 16,200×g for 20 min. The supernatants were collected and the protein contents were quantified using the Bradford assay. The caspase-1 activity was determined by measuring the fluorescence produced by the cleavage of a fluorogenic substrate. The fluorescence was reported as arbitrary fluorescence units produced by 1 μg of sample per min (fluorescence/μg/min)."}, "NLRP3 inflammasome [2]": {"target": "T1, NLRP3 inflammasome", "assay": "Cell death in HL-1 cardiomyocytes (trypan blue exclusion)", "format": "cell-based, murine", "parameters": "immortalized adult murine cardiomyocytes (HL-1) cells were used; endogenous in cells; host or cells: HL-1 murine cardiomyocytes"}, "NLRP3 inflammasome [3]": {"target": "NLRP3 inflammasome (Homo sapiens, UniProt Q96P20)", "sequence (Q96P20 whole entry)": "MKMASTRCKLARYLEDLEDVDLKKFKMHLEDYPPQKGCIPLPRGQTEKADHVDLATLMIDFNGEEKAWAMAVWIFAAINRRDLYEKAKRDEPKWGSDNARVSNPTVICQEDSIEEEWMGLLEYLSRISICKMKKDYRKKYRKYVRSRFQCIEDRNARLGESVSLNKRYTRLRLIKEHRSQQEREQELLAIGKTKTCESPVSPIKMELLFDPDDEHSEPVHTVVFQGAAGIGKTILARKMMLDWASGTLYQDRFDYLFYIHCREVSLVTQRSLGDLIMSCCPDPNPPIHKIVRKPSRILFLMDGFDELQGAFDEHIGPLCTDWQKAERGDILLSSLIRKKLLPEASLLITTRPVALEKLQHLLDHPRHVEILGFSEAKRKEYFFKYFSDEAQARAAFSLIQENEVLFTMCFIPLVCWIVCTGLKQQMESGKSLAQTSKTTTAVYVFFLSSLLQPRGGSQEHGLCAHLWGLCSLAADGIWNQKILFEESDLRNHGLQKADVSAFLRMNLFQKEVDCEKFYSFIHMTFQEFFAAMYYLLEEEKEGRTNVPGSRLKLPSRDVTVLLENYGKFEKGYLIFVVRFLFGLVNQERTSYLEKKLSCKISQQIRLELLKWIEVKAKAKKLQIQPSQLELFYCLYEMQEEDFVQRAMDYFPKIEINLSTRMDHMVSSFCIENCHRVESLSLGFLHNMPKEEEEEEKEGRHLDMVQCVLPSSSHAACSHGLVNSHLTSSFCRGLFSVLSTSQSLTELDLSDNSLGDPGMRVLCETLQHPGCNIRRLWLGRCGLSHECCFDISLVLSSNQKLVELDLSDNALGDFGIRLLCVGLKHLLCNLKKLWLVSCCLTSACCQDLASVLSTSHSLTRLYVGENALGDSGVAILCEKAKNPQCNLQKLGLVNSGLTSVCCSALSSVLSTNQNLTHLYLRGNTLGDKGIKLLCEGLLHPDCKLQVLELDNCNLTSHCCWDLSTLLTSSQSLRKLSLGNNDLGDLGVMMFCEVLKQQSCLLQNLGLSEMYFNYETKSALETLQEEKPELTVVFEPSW", "settings": "literature reports, cited from earlier work"}, "insulin": {"test_system": "insulin", "settings": "Lamkanfi et al. 2009; cited from earlier work"}, "NLRP3 inflammasome [4]": {"target": "T1, NLRP3 inflammasome", "assay": "Acute myocardial infarction, single i.p. dose at reperfusion, infarct size (TTC)", "format": "in vivo", "parameters": "from tissue; host or cells: live mice: heart (infarction and doxorubicin models) and peritoneal cavity (zymosan A)", "settings": "experiment with G1; 100 mg/kg i.p. at reperfusion; 24 hours; vs vehicle", "protocol": "Experimental AMI was induced in mice by transient myocardial ischemia for 30 min followed by 24 hours of reperfusion. […] The heart were explanted at 24 hours and processed for the measurement of infarct size using triphenyl tetrazolium chloride (TTC staining). The areas of infarcted tissue, the risk zone, and the whole LV areas are determined by computer morphometry using Image Pro® Plus 6.0 software (Media Cybernetics, Silver Spring, Md.).\nAs described above, experimental AMI was induced by transient myocardial ischemia for 30 min followed by 24 hours of reperfusion."}, "healthy mice": {"test_system": "healthy mice", "assay": "Toxic effects and glucose levels in healthy control mice"}},
  "note": "Like-named read-outs stand apart in the source and are kept apart here.",
  "data": [
    {"smiles": "COc1ccc(Cl)cc1C(=O)NCCc1ccccc1", "note": "[Compound 6 in FIG. 3, 5-chloro-2-methoxy-N-(2-phenylethyl)-benzamide]", "values": [
      {"measurement": "caspase-1 activity", "setting": "NLRP3 inflammasome [1]", "result": "failed to inhibit"},
      {"measurement": "caspase-1 activity", "setting": "NLRP3 inflammasome [1]; listed as intermediate compound", "result": "no inhibitory effects"},
      {"measurement": "cell death", "setting": "NLRP3 inflammasome [2]", "result": "failed"},
      {"measurement": "cell death", "setting": "NLRP3 inflammasome [2]; HL-1, LPS/ATP, compound 400 μM", "result": "no inhibitory effects"}
    ]},
    {"smiles": "COc1ccc(Cl)cc1C(=O)NCCc1ccc(S(=O)(=O)Cl)cc1", "note": "[Compound G1, 4-(2-[(5-chloro-2-methoxyphenyl)formamido]ethyl)benzene-1-sulfonyl chloride]", "values": [
      {"measurement": "inhibition of cryopyrin / NLRP3 inflammasome in vitro", "setting": "NLRP3 inflammasome [3]", "result": "inhibited"},
      {"measurement": "inhibition of cryopyrin / NLRP3 inflammasome in vitro", "setting": "NLRP3 inflammasome [3]; listed as compound 1", "result": "retain some of the anti-inflammatory activity of glyburide"},
      {"measurement": "effect on insulin", "setting": "insulin", "result": "no effect"},
      {"measurement": "infarct size (% area at risk)", "setting": "NLRP3 inflammasome [4]", "result": "no effect"}
    ]},
    {"smiles": "COc1ccc(Cl)cc1C(=O)NCCc1ccc(S(=O)(=O)NC(=O)NC2CCCCC2)cc1", "note": "[glyburide]", "values": [
      {"measurement": "lethal within 3 days, share of mice", "setting": "healthy mice; 100 mg/kg every 6 hours for 3 doses", "result": 50, "unit": "%"},
      {"measurement": "glucose levels 2 hours after a single dose", "setting": "healthy mice; 16673-34-0 100 mg/kg, (equimolar)", "result": "significant reduction"},
      {"measurement": "lethal in 3 days, share of mice", "setting": "healthy mice; daily doses of 500 mg/kg", "result": 100, "unit": "%"},
      {"measurement": "mortality in healthy mice", "setting": "healthy mice; every 6 hours for 24 hours, 16673-34-0 100 mg/kg", "result": 50, "unit": "%"},
      {"measurement": "plasma glucose levels", "setting": "healthy mice; healthy mice, single and repeated injections, glyburide effect as early as 2 hours", "result": "significant reduction"}
    ]}
  ]
}
